{
  "source": "paper PMC12615518",
  "about": "“Discovery of CRBN-recruiting PROTAC degraders of the METTL3-METTL14 complex” (Medicinal Chemistry Research, 2025)",
  "key": {"MOLM13 cells [1]": {"system": "MOLM13 cells", "assay": "Cell viability assay (CCK-8) in MOLM13 cells", "type": "cell-based, human", "conditions": "CCK-8, normalized to vehicle", "procedure": "(§1) We proceeded to evaluate the cytotoxic activities of ZW30441 in AML cell lines by treating MOLM13 and MV4-11 cells with ZW30441 in increasing doses for 72 h.\n(§2) Cell Lines and Culture Conditions: The human acute myeloid leukemia (AML) cell lines MOLM13 and MV4.11, as well as the HEK 293T epithelial kidney cell line, were obtained from the American Type Culture Collection (ATCC, USA). AML cells were maintained in RPMI-1640 medium (Gibco, USA) supplemented with 10% fetal bovine serum (FBS) and 1% penicillin-streptomycin (Sigma, Germany). HEK 293T cells were cultured in complete Dulbecco’s Modified Eagle Medium (DMEM) containing 10% FBS and 1% penicillin-streptomycin (Sigma). All cell lines were maintained under standard conditions in a humidified atmosphere at 37 °C with 5% CO₂.\n(§3) Cell Viability Assay: AML cells were seeded in 96-well plates at a density of 5,000 cells per well and treated with varying concentrations of ZW30441 or vehicle (dimethyl sulfoxide, DMSO). Each condition was performed in triplicate. After the treatment period, cell viability was measured using the Cell Counting Kit-8 (CCK-8; APExBIO, USA, Cat# K1018) according to the manufacturer’s instructions. Absorbance was recorded at 450 nm using a SPECTROstar microplate reader (BMG LABTECH, USA)."}, "MV4-11 cells [2]": {"system": "MV4-11 cells", "assay": "Cell viability assay (CCK-8) in MV4-11 cells", "type": "cell-based", "conditions": "Homo sapiens, MV4-11, 72 h, CCK-8, normalized to vehicle", "procedure": "as §1, §2, §3"}, "MOLM13 cells [3]": {"system": "MOLM13 cells", "assay": "Cell proliferation assay in MOLM13 cells", "type": "cell-based, human", "conditions": "MOLM-13 cells, 5 µM, 4-day period", "procedure": "as §1\n(§4) Cell Proliferation Assay: To assess cell growth, 1×10⁵ cells were seeded per well in 24-well plates in triplicate and treated with 5 µM concentrations of the test compounds. The culture medium containing the compounds was refreshed every 48 hours, and cell densities were maintained below 1×10⁶ cells/mL through periodic dilution. Cell numbers were measured every other day over a 4-day period using a DS-11 automated cell counter (DeNovix, USA)."}, "MV4-11 cells [4]": {"system": "MV4-11 cells", "assay": "Cell proliferation assay in MV4-11 cells", "type": "cell-based, human", "conditions": "5 µM, 4-day period", "procedure": "as §1, §4"}, "METTL3 [5]": {"molecular_target": "T1, METTL3 (Homo sapiens, UniProt Q86U44)", "T1 sequence (Q86U44 2-580 limits assumed)": "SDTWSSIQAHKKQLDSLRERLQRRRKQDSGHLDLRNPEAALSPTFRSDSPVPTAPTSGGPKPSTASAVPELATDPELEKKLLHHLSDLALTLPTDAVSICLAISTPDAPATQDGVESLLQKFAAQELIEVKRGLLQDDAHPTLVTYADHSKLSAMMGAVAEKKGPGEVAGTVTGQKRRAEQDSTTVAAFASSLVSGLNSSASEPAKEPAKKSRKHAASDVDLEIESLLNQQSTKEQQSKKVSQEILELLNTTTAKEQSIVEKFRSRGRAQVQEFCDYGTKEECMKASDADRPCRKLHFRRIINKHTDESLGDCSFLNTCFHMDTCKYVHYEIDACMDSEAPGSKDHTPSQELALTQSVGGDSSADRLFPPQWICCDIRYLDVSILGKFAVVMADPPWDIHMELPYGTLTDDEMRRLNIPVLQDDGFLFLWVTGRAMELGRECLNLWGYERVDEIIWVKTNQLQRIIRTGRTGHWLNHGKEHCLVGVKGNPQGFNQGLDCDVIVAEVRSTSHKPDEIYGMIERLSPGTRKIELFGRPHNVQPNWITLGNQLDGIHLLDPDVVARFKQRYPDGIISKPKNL", "T1 sequence (Q9HCE5 whole entry partner)": "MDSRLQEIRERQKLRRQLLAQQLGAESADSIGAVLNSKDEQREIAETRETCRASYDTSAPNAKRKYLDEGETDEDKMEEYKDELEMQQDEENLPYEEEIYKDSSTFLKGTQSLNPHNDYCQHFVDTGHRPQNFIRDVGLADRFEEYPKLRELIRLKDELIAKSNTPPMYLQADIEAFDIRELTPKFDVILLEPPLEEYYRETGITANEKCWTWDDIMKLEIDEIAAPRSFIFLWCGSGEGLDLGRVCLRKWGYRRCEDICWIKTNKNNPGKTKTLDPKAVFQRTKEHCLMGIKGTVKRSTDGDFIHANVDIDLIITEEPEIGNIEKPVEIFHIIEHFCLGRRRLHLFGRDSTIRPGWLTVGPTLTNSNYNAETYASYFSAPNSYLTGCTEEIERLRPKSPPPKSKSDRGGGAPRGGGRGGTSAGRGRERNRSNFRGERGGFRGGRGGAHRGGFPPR", "assay": "Mechanism study: METTL3 Western blot in HEK293T cells after pretreatment with proteasome inhibitors or CRBN ligand", "type": "cell-based", "design": "endogenous in cells", "conditions": "then ZW30441 2.5 µM for 24 h", "procedure": "We next explored the mechanisms of ZW30441-induced METTL3-METTL14 degradation. HEK293T cells were pretreated with the proteasome inhibitors bortezomib (0.1 µM) or MG132 (1 µM) for 2 h before ZW30441 (2.5 µM) administration (Fig. 4A).\nFig. 4 ZW30441 induced METTL3-METTL14 complex degradation through the ubiquitin-proteasome system and affected the survival of human AML cell lines. A Western blot analysis of METTL3 expression in HEK293T cells after pretreatment with the CRBN ligand pomalidomide (10 µM) or the proteasome inhibitors bortezamib (0.1 µM) or MG132 (1 µM) for 2 h, followed by treatment with ZW30441 (2.5 µM) for 24 h (left). Western blot analysis of METTL3 and METTL14 levels in MV4-11 cells after treatment with UHZ2, ZW30441, and the negative control ZW30441NC at the indicated concentration for 24 h (right). B Cell viability study of ZW30441 in MOLM13 and MV4-11 cell lines (left). […]\nWestern Blot Analysis: Following treatment, total cellular proteins were extracted using RIPA buffer (Auragene, Changsha, China). […] Band intensities were quantified using ImageJ software and normalized to ACTIN as a loading control. Data was analyzed using GraphPad Prism 9. Degradation efficiency was evaluated by calculating DC₅₀, the drug concentration required to reduce target protein levels by 50%, and Dₘₐₓ, the maximum level of degradation observed across all tested concentrations."}, "METTL3 [6]": {"molecular_target": "T1, METTL3", "assay": "Immunoblotting (Western blot) degradation of METTL3 in MV4-11 cells", "type": "cell-based", "design": "Following treatment, total cellular proteins were extracted using RIPA buffer; endogenous in cells; host or cells: MV4-11 (MV4.11) human AML cells, ATCC", "procedure": "All cell lines were maintained under standard conditions in a humidified atmosphere at 37 °C with 5% CO₂.\nWestern Blot Analysis: Following treatment, total cellular proteins were extracted using RIPA buffer (Auragene, Changsha, China). […] After washing, membranes were incubated with horseradish peroxidase (HRP)-conjugated secondary antibodies (anti-rabbit or anti-mouse IgG; 1:5000) for 2 hours at room temperature. Protein bands were visualized using an enhanced chemiluminescence (ECL) detection kit (Amersham Pharmacia), following the manufacturer's protocol. Band intensities were quantified using ImageJ software and normalized to ACTIN as a loading control. Data was analyzed using GraphPad Prism 9."}},
  "note": "“Also recorded” adds a separate entry of the source.",
  "data": [
    {"smiles": "CC1(C)CCN(Cc2cc(F)c(N3CC(=O)NC4(CCN(c5cc(NCCCCCCCCCC(=O)N6CCN(c7ccc8c(c7)CN(C7CCC(=O)NC7=O)C8=O)CC6)ncn5)CC4)C3)cc2F)CC1", "note": "(stereo not shown) [Compound 4j, 3-(5-(4-(10-((6-(4-(4-((4,4-dimethylpiperidin-1-yl)methyl)-2,5-difluorophenyl)-2-oxo-1,4,9-triazaspiro[5.5]undecan-9-yl)pyrimidin-4-yl)amino)decanoyl)piperazin-1-yl)-1-oxoisoindolin-2-yl)piperidine-2,6-dione]", "values": [
      {"measurement": "EC50", "setting": "MOLM13 cells [1]; 72 h, listed as ZW30441", "value": 1020, "unit": "nM"},
      {"measurement": "EC50", "setting": "MOLM13 cells [1]; Homo sapiens, MOLM-13, 72 h", "value": 1020, "unit": "nM"},
      {"measurement": "EC50", "setting": "MV4-11 cells [2]", "value": 2410, "unit": "nM"},
      {"measurement": "cell growth inhibition compared to STM2457 and UZH2", "setting": "MOLM13 cells [3]", "value": "comparable cell growth inhibition"},
      {"measurement": "anti-proliferation activity compared to STM2457 and UZH2", "setting": "MV4-11 cells [4]", "value": "enhanced cytotoxicity"},
      {"measurement": "anti-proliferation activity compared to STM2457 and UZH2", "setting": "MV4-11 cells [4]; listed as ZW30441", "value": "more potent anti-proliferation activity; also recorded: superior cellular activity"},
      {"measurement": "METTL3 degradation after pretreatment with proteasome inhibitors", "setting": "METTL3 [5]; bortezomib (0.1 µM) or MG132 (1 µM) for 2 h", "value": "effectively blocked; also recorded: abrogated"},
      {"measurement": "METTL3 degradation after pretreatment with CRBN ligand pomalidomide", "setting": "METTL3 [5]; pomalidomide 10 µM for 2 h", "value": "significantly reduced; also recorded: abrogated"},
      {"measurement": "Dmax", "setting": "METTL3 [6]; MV4-11, MV4-11 cells, 24 h", "value": 80, "unit": "%"},
      {"measurement": "% reduction in MV4-11 cells, 0.3 µM, METTL3", "setting": "METTL3 [6]; MV4-11 cells, 0.3 µM, 24 h, immunoblotting, nd = no degradation", "value": 58, "unit": "%"},
      {"measurement": "% reduction in MV4-11 cells, 1.0 µM, METTL3", "setting": "METTL3 [6]; MV4-11 cells, 1.0 µM, 24 h, immunoblotting, nd = no degradation", "value": 81, "unit": "%"},
      {"measurement": "DC50", "setting": "METTL3 [6]; MV4-11 cells, 24 h, Western blot normalized against ACTIN", "value": 440, "unit": "nM"},
      {"measurement": "time of maximum degradation of METTL3", "setting": "METTL3 [6]; MV4-11 cells, time course at 1 µM", "value": 20, "unit": "h"}
    ]}
  ]
}
